Assay results as given in patent publication US20080153792A1, “Drug Identification and Treatment Method” (priority 2006, published 2008).

What was measured:
11β-HSD1 mRNA = assay: liver mRNA by RT-PCR in rats fed compound in chow: 11β-HSD1; assay type: in vivo, rat; settings: 0.45% wt/wt in chow for 6 days; control 100%
Description: (§1) Rats were fed ad libum with a standard laboratory chow that contained 0.45% wt/wt of androst-5-ene-3β,7β,17β-triol for 6 days, followed by analysis of liver tissue on day 6 for levels of phosphoenolpyruvate carboxykinase (“PEPCK”) and 11β-hydroxysteroid dehydrogenase (“11β-HSD”) in the liver. Control animals were fed normal chow and livers were examined on day 6 for PEPCK and 11β-HSD levels by measurement of messenger RNAs (mRNAs) by RT-PCR. Both control and treated animals had free access to water. […] Levels of PPARα mRNA in these animals were not affected by feeding with androst-5-ene-3β,7β,17β-triol.

PEPCK mRNA = assay: liver mRNA by RT-PCR in rats fed compound in chow: PEPCK; assay type: in vivo, rat; settings: 0.45% wt/wt in chow for 6 days; control 100%
Description: as §1

PPARα mRNA = assay: liver mRNA by RT-PCR in rats fed compound in chow: PPARα; assay type: in vivo, rat; settings: 0.45% wt/wt in chow for 6 days; control 100%
Description: as §1

[1] = tested on: male Wistar rats, DNBS colitis; assay: DNBS induced distal colitis; assay type: in vivo, rat; settings: s.c. once a day for 6 days, 0.2 or 2.0 mg/animal/day; 25-30% decrease considered significant
Protocol: Treatment of gastrointestinal inflammation. The capacity of formula 1 compounds to limit or inhibit inflammation or symptoms of inflammation was shown using an animal model for inflammatory bowel disease. Groups of 3 male Wistar rats (180±20 grams) fasted for 24 hours before 2,4-dinitrobenzene sulfonic acid (DNBS) or saline challenge were used. Distal colitis was induced by intra-colonic instillation of 0.5 mL of an ethanolic solution of DNBS (30 mg in 0.5 mL of a 30% ethanol in saline solution) after which 2 mL of air was injected through the cannula to ensure that the solution remained in the colon. The volume used was 0.1 mL per injection of 2 and 20 mg/mL of compound such as androst-5-ene-3β,7β,17β-triol in a liquid formulation, which was administered by subcutaneous injection once a day for 6 days (0.2 mg/animal/day or 2.0 mg/animal/day). The formulation contained 100 mg/mL of compound in a non-aqueous suspension, e.g., 2% benzyl alcohol w/v, 0.1% Brij 96 w/v and equal volumes of PEG 300 and propylene glycol. Concentrations of 2 mg/mL and 20 mg/mL were obtained by diluting the […] with vehicle that lacked compound.
The first dose was given 30 minutes after DNBS challenge. […] The presence of diarrhea was recorded daily by examining the anal area. […] Before removal of the colon, signs of adhesion between the colon and other organs are recorded. […]

[2] = tested on: gerbils, cerebral ischemic stroke; assay: acute cerebral ischemic stroke by bilateral carotid occlusion; assay type: in vivo, gerbil; settings: stroke treated
Description: Treatment of neuron loss associated with trauma and osteoporosis or bone loss conditions. Immune competence is a complex function that can be acutely impaired following trauma-induced elevations in endogenous glucocorticoid (GC) levels. The compound 5-androstene-3β,7β,17β-triol administered parenterally was used to preserve these immune function by exerting a trophic or anabolic activity. […] Thus, the measured food-searching latency period in each group was 6.9±0.9 seconds (sec) for sham, 46.9±13.6 sec for stroke alone and 14.8±4.8 sec for stroke treated with 5-androstene-3β,7β,17β-triol. Concomitantly, the stroke-induced loss in CA1 hippocampal neuron count was markedly abrogated by 5-androstene-3β,7β,17β-triol (sham=362,247±6,839; stroke=152,354±11,575; and stroke+5-androstene-3β,7β,17β-triol=207,854±47,334).

[3] = tested on: thermally-injured mice (20% total body surface area); assay: bone loss in thermally-injured mice; assay type: in vivo, mouse
Description: In bone loss conditions, 5-androstene-3β,7β,17β-triol affected the principal bone structures, i.e., cortical and trabecular layers and the growth plate. […] We observed partial protection against loss of bone mineral content as measured by dual X-ray absorptiometry.

[4] = tested on: rats, trauma and hemorrhage; assay: rat model of hemorrhagic trauma, 40% loss of total blood volume; assay type: in vivo; settings: one s.c. injection 40 mg/kg one hour after initiation of hemorrhage; n=12
Protocol: The effect of treatment in a rat model of hemorrhagic trauma was examined. Twenty-four rats were subjected to 40% loss of total blood volume, consisting of catheterization and laparotomy (soft tissue injury) to mimic trauma and hemorrhage. One hour after onset of hemorrhage, the animals were resuscitated with crystalloid fluid and packed red blood cells (PRBCs). […] Twelve animals received subcutaneous methyl cellulose control injection at 100 μL/kg body weight.

[5] = tested on: rats hemorrhaged to mean arterial pressure of about 35-40 mmHg; assay: reduced blood pressure hemorrhagic trauma protocol; assay type: in vivo, rat; settings: one s.c. injection 40 mg/kg; n=7; untreated group 75%
Protocol: A reduced blood pressure hemorrhagic trauma protocol was also conducted as a second model of hemorrhagic trauma. In this protocol, 15 rats were hemorrhaged described above to a mean arterial pressure of about 35-40 mmHg and resuscitated one hour from onset of the hemorrhage with crystalloid and PRBCs. Seven […] subcutaneous injection of androst-5-ene-3β,7β,17β-triol in a methyl cellulose suspension at a concentration of 40 mg/kg body weight in 100 μL/kg body weight, one hour after initiation of hemorrhage, but before fluid resuscitation. Eight animals received subcutaneous methyl cellulose control injection at 100 μL/kg body weight. Two days after induction of hemorrhage, mortality in the untreated group (n=8) was 75%.

[6] = metabolic stability in liver microsomes: human
Protocol: (§2) The protocol was performed as follows. […] (2) Set up samples as follows. […] (4) The internal standard/acetonitrile solution.

[7] = metabolic stability in liver microsomes: mouse; settings: 10 min
Protocol: as §2

[8] = tested on: C57/BL6 mice, LPS-induced acute lung inflammation; assay: LPS-induced lung injury, BAL and lung MPO, Example 11; assay type: in vivo, mouse; settings: 40 mg/Kg orally; 48 h after LPS
[9] = tested on: 8 week old db/db diabetic mice; assay: hyperinsulinemic-euglycemic clamp in db/db mice; assay type: in vivo, mouse
Protocol: Glucose lowering in 8 week old db/db diabetic mice. The hyperinsulinemic-euglycemic clamp protocol was conducted to measure insulin sensitivity in vivo. In this procedure, insulin was administered to raise the insulin concentration while glucose was infused to maintain euglycemia or a fixed, normal blood glucose level (about 180 mg/dL). […] The objective of this protocol was to investigate characterize the capacity of 17α-ethynylandrost-5-ene-3β,7β,17β-triol and androst-5-ene-3β,7β,16α,17β-tetrol to ameliorate systemic insulin resistance and improve whole body glucose disposal in the hyperinsulinemic-euglycemic clamp model. The degree of skeletal muscle and hepatic insulin sensitivity and tissue specific glucose uptake were also assessed. The animals were dosed daily by oral gavage for 14 days. On Day 10 of treatment catheters were implanted in the carotid artery and jugular vein. On the day of the clamp (day 14) the compound was administered at 7:30 am.
Body weight and glucose concentration were assessed on day 0, 7 and day 14 of treatment. On day 14 a euglycemic hyperinsulinemic clamp was performed. […] Plasma ^14C 2-deoxyglucose was assessed at 122, 125, 130, 135, 145 min. […]
Analysis was conducted as follows. Plasma samples were deproteinized with Ba(OH)2 (0.3 N) and ZnSO4 (0.3 N), dried and radioactivity was assessed on scintillation counter (Packard TRICARB 2900 TR, Meriden, Conn.). […] One supernatant was directly counted to determine radioactivity from both [14C] […] A second aliquot was treated with Ba(OH)2 and ZnSO4 to remove ^14C DGP and any tracer incorporated into glycogen and then counted to determine radioactivity from free [^14C]DG(2). [^14C]DGP was calculated as the difference between the two aliquots. […] Rg, an index of tissue specific glucose uptake was calculated as previously described (E. W. Kraegen et al., Am. J. Physiol., 248:E353-E362, 1985). Whole body glucose turnover was calculated as the ratio of the ^3H glucose infusion rate (dpm/kg/min) and arterial plasma glucose specific activity (dpm/mg). […]

female SJL mice, EAE = assay: experimental autoimmune encephalomyelitis (EAE), PLP-induced, Example 23; assay type: in vivo, mouse; settings: 0.1 mg q.d. po from clinical onset
MG-63 cells = assay: reversal of glucocorticoid effects in MG-63 osteosarcoma cells; assay type: cell-based, human; settings: 0.1 μM compound
androgen receptor = androgen receptor (Homo sapiens, UniProt P10275); assay: interaction with androgen receptor
Chain of androgen receptor (P10275 whole entry, species assumed): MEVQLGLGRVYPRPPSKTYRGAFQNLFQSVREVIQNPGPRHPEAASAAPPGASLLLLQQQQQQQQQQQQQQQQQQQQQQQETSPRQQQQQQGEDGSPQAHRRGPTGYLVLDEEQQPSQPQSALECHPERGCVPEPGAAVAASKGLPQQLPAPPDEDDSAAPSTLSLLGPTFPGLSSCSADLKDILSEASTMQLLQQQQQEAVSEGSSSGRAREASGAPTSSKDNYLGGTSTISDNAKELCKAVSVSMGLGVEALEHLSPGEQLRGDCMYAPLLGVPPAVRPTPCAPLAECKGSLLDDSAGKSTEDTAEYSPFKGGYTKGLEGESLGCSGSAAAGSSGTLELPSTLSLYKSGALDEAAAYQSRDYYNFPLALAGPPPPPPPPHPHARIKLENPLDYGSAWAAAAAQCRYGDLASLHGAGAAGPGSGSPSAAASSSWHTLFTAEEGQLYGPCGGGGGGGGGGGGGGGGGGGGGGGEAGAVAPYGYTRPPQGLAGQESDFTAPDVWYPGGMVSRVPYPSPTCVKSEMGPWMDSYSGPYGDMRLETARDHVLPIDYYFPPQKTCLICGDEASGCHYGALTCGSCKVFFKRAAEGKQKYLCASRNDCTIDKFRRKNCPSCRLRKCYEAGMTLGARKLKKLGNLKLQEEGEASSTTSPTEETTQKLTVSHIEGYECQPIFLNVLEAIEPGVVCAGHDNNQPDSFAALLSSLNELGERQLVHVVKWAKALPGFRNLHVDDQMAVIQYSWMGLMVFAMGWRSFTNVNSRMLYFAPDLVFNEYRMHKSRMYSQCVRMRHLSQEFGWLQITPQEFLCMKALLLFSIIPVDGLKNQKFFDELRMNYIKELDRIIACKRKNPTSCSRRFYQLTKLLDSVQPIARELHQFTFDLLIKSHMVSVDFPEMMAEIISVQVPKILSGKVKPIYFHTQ

[10] = tested on: estrogen receptor-s or estrogen receptor-s; assay: interaction with estrogen receptors
CaCo-2 cell monolayer = assay: drug absorption with CaCo-2 cells; assay type: in vitro ADME, human
Protocol: Measurement of drug absorption with CaCo-2 cells. This protocol was used to measure the influx of compounds across a CaCo-2 cell monolayer. […] This cell line is used to study the rate at which various compounds cross the cell monolayer. […] This can provide information about a compound's potential to be orally bioavailable.
In this protocol, the cells were maintained in medium at 37° C., using 100 μL per well of warm medium in a sterile 50 ml tube. The cells were grown on sterile 24-well plates with 600 μL of differentiation medium per well. The wells contained a transwell insert to allow two compartments per well. […]
After differentiation medium reached room temperature, about 20 mL was poured into a small beaker. […] Each well was measured by the probe by inserting the probe into the well without touching the cell monolayer; press the TEST button when the probe is close to the medium surface and the reading will go from 0000 to a number when the probe touches the surface; a reading >1000Ω was acceptable. […]
20 μL of the 3α,7β,16α,17β-tetrahydroxyandrost-5-ene internal standard was added to each tube and 1500 μL of methyl-t-butyl ether was added to each tube. […] The methyl-t-butyl ether was then evaporated under nitrogen and reconstituted in 120 μL acetonitrile/water (35:65) and analyzed by LCMS.

[11] = other protocols: degree of sulfation and glucuronidation

C[C@]12CC[C@H]3[C@@H]([C@@H](O)C=C4C[C@@H](O)CC[C@@]43C)[C@@H]1CC[C@@H]2O [androst-5-ene-3β,7β,17β-triol]
11β-HSD1 mRNA (11β-HSD1 mRNA): 45%
PEPCK mRNA (PEPCK mRNA): 30%
PPARα mRNA (PPARα mRNA): 105%
decrease in net colon-to-body weight ratio [1]: 15-20%
food-searching latency period ([2]; sham 6.9±0.9, stroke alone 46.9±13.6): 14.8 ± 4.8 s
CA1 hippocampal neuron count ([2]; sham 362,247±6,839, stroke 152,354±11,575): 207,854±47,334
femur ash weight versus vehicle-treated burned mice [3]: significantly (p<0.01) greater
loss of cortical (femur) and trabecular/cancellous (tibia) bone mass and suppression of chondrocyte proliferation in growth plate [3]: significantly (p<0.01) prevented
survival rate three days after induction of hemorrhage [4]: 100%
mortality rate two days after induction of hemorrhage [5]: 43%
parent remaining human microsomes ([6]; 90 min): 86% (90 min)
parent remaining mouse microsomes [7]: 89% (10 min)

C[C@]12CC[C@H]3[C@@H]([C@@H](O)C=C4C[C@@H](O)CC[C@@]43C)[C@@H]1C[C@@H](O)[C@@H]2O [androst-5-ene-3β,7β,16α,17β-tetrol]
level of IL-6 in BAL compared to vehicle treated animals [8]: reduced levels
level of MPO compared to vehicle treated animals [8]: reduced levels
level of TNFα in BAL compared to vehicle treated animals [8]: reduced levels
augmenting muscle glucose uptake in the gastrocnemius muscle ([9]; ^14C-2-deoxyglucose, p<0.05): more effective
glucose infusion rate compared to the vehicle control ([9]; oral gavage 14 days, insulin 10 mU/kg/min): increased the glucose infusion rate
course of EAE compared to vehicle-treated mice (female SJL mice, EAE): significantly improved course of EAE
osteoprotegerin levels in the presence of 30 nM dexamethasone (MG-63 cells): normal osteoprotegerin levels
interaction with androgen receptor (androgen receptor): do not interact
interaction with estrogen receptor-s or estrogen receptor-s [10]: do not interact
parent remaining human microsomes ([6]; 10 min): 100% (10 min)
parent remaining mouse microsomes [7]: 100% (10 min)
permeability in the CaCo-2 cell line (CaCo-2 cell monolayer): not highly permeable
degree of sulfation and degree of glucuronidation compared to diols [11]: low
